Source: the supplement of paper PMC12076712

Experiments:
Experiment in all cases: pIC50, kinobeads binding competition
DYRK2 = target: T1, DYRK2 (UniProt Q92630)
T1 sequence (whole entry): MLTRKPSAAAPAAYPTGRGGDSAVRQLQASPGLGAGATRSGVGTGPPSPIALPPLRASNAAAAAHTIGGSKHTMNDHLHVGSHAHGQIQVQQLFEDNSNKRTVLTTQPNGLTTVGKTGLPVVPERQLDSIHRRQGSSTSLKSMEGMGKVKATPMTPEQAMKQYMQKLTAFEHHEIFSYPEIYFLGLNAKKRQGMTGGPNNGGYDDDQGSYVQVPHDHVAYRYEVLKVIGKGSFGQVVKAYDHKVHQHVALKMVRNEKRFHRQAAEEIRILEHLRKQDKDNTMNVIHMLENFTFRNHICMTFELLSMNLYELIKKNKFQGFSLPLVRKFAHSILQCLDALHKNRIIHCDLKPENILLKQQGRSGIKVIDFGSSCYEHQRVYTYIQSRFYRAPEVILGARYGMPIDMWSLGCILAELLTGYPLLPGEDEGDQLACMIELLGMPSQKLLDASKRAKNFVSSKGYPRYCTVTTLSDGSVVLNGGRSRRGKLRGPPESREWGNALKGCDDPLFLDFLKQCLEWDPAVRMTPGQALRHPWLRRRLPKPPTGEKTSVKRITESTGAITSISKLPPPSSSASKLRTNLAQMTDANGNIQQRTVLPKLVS
In short: (§1)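 To obtain pIC50, fold changes versus vehicle were fitted to logistic dose-response curves (R drc package) across biological duplicates. Protein binding to Kinobeads was quantified by TMT10 LC-MS/MS of digested bead-bound proteins. Treatments used nine concentrations with a top of 30 μM, applied to live Jurkat cells in 1:4 steps for 60 min at 37 °C before lysis, or to Jurkat lysate or a 1:1:1:1 HEK293/K-562/HepG2/placenta lysate mix in 1:5 steps for 60 min at 4 °C.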

TNK1 = target: T2, TNK1 (UniProt Q13470); conditions: cell material: Lysate mix
T2 sequence (whole entry): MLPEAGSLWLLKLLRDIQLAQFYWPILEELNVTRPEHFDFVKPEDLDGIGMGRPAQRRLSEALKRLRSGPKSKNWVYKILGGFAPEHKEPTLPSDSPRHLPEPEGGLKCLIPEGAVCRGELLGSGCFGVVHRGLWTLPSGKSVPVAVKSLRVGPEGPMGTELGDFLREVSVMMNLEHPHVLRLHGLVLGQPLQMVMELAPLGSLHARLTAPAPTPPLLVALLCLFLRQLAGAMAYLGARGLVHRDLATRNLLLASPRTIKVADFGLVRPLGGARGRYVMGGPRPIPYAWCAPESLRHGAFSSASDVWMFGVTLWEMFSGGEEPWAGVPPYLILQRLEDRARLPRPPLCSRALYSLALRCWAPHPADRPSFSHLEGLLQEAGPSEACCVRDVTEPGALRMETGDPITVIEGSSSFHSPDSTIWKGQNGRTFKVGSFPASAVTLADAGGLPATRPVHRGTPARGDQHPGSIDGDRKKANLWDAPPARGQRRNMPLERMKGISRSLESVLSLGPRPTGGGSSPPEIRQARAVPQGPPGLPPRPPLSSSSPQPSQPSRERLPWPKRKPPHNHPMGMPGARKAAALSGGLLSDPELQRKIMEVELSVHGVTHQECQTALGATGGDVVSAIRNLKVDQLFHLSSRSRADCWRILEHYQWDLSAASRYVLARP
In short: as §1

UniProt Q9NYV4 = target: UniProt Q9NYV4
In short: as §1

BMPR1A = BMPR1A (UniProt P36894)
In short: as §1

CSK = CSK (UniProt P41240)
In short: as §1

SGK3 = target: T3, SGK3 (UniProt Q96BR1)
T3 sequence (whole entry): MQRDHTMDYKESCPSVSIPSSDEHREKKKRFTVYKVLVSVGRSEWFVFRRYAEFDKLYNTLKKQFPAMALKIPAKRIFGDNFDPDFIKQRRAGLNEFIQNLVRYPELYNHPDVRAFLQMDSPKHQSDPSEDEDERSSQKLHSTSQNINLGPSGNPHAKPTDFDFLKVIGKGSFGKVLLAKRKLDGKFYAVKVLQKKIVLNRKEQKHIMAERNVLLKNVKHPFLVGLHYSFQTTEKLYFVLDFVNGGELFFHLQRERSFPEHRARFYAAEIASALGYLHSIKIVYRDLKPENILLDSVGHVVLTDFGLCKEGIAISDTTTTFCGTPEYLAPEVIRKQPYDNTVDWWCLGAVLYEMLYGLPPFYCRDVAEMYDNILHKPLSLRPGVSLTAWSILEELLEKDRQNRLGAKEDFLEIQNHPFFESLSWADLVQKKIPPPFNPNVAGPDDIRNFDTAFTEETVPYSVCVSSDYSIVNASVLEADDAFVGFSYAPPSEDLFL
In short: as §1

Chain of CSK (P41240 whole entry, looked up): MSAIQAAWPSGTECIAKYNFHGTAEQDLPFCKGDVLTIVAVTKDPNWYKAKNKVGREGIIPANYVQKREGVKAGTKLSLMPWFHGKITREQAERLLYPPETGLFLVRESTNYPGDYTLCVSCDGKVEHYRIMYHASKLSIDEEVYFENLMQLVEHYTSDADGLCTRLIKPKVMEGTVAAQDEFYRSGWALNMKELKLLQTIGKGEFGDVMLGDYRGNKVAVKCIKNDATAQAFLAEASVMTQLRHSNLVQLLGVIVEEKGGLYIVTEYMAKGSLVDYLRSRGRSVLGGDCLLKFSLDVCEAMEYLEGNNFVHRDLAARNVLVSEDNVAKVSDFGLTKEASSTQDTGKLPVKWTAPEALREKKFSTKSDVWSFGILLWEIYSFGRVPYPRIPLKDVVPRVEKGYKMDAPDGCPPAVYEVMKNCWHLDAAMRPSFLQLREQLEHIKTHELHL
Chain of BMPR1A (P36894 whole entry): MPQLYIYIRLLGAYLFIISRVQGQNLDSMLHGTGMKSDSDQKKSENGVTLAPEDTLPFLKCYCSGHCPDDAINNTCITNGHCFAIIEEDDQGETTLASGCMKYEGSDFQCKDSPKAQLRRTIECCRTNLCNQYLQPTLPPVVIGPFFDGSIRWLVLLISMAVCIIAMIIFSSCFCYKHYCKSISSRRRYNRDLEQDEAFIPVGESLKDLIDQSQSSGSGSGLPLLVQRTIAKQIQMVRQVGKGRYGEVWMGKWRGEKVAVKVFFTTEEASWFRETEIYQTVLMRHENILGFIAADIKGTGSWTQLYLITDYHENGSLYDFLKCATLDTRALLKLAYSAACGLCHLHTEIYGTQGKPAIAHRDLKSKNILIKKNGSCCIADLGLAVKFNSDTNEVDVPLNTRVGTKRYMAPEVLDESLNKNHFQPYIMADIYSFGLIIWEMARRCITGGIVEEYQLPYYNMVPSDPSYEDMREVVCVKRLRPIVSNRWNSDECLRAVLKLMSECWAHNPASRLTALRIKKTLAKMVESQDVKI
Chain of UniProt Q9NYV4 (Q9NYV4 whole entry, looked up): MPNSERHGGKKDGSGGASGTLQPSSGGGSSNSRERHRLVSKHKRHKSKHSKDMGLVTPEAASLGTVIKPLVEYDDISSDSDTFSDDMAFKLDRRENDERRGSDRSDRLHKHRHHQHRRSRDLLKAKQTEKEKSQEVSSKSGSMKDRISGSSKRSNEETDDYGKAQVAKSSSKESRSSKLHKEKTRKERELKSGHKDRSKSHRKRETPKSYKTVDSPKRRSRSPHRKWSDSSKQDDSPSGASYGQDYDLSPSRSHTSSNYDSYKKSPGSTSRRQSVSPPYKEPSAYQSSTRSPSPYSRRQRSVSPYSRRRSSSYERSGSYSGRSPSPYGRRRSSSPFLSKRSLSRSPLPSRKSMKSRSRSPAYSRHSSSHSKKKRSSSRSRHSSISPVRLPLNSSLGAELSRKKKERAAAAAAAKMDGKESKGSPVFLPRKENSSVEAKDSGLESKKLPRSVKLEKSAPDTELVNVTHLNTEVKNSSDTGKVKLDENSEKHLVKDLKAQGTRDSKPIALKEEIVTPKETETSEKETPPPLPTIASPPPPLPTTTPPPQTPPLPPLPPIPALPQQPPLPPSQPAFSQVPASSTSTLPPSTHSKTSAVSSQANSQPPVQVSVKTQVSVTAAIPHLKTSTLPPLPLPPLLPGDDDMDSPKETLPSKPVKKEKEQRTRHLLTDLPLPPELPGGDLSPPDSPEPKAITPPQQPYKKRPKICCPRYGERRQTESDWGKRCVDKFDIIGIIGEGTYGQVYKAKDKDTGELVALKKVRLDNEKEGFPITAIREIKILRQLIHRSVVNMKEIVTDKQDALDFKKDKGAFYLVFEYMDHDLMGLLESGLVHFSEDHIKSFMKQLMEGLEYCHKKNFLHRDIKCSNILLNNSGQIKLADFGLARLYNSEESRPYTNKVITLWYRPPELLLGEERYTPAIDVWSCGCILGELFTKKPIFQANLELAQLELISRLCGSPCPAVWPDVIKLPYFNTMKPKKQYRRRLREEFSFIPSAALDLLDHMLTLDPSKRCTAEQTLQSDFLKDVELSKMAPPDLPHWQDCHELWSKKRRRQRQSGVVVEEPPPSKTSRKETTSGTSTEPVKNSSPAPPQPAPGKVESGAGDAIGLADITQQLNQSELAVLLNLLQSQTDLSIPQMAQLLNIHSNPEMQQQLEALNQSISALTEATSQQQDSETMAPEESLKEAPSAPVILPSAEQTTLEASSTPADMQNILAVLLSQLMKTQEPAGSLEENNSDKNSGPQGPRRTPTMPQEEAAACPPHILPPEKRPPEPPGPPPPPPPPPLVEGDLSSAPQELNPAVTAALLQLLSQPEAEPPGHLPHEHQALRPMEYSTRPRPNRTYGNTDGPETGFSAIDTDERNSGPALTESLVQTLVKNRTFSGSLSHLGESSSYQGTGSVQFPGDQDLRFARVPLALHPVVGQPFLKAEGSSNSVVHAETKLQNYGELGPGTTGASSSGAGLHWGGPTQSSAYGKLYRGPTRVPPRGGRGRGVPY

Molecule C#CCNC(=O)c1cc(Nc2cc(C3CC3)[nH]n2)nc(N2CCN(Cc3ccc(S(=O)(=O)F)cc3)CC2)n1 has a pIC50 (DYRK2; cell material: Jurkat cells) of less than 4.52, a pIC50 (DYRK2; cell material: Jurkat lysate) of less than 4.52 and a pIC50 (TNK1) of 7.34. The pIC50 (UniProt Q9NYV4; cell material: Jurkat cells) was 6.33, the pIC50 (UniProt Q9NYV4; cell material: Lysate mix) was 5.34 and the pIC50 (BMPR1A; cell material: Jurkat cells) was 4.69. For the same molecule, the pIC50 (BMPR1A; cell material: Jurkat lysate) was less than 4.52, the pIC50 (BMPR1A; cell material: Lysate mix) was 4.99 and the pIC50 (CSK; cell material: Jurkat cells) was 5.55. It also gave a pIC50 (CSK; cell material: Jurkat lysate) of less than 4.52, a pIC50 (CSK; cell material: Lysate mix) of less than 4.52 and a pIC50 (SGK3; cell material: Jurkat cells) of 6.6. It also gave a pIC50 (SGK3; cell material: Jurkat lysate) of 5.65 and a pIC50 (SGK3; cell material: Lysate mix) of 5.96.
C#CCNC(=O)c1cc(Nc2cc(C)[nH]n2)nc(N2CCN(Cc3ccc(S(=O)(=O)F)cc3)CC2)n1 showed a pIC50 (DYRK2; cell material: Lysate mix) of less than 4.52, a pIC50 (TNK1) of 6.23 and a pIC50 (UniProt Q9NYV4; cell material: Lysate mix) of less than 4.52. For the same molecule, the pIC50 (BMPR1A; cell material: Lysate mix) was less than 4.52, the pIC50 (CSK; cell material: Lysate mix) was less than 4.52 and the pIC50 (SGK3; cell material: Lysate mix) was 6.06.
Cc1cc(Nc2cc(C(=O)NCCNC(=O)OC3CC/C=C/CCC3)nc(N3CCN(Cc4ccc(S(=O)(=O)F)cc4)CC3)n2)n[nH]1 (centres undefined) was tested, and the pIC50 (DYRK2; cell material: Lysate mix) was less than 4.52, the pIC50 (TNK1) was 4.8 and the pIC50 (UniProt Q9NYV4; cell material: Lysate mix) was less than 4.52. For the same molecule, the pIC50 (BMPR1A; cell material: Lysate mix) was less than 4.52, the pIC50 (CSK; cell material: Lysate mix) was less than 4.52 and the pIC50 (SGK3; cell material: Lysate mix) was 5.22.
In the case of O=C(NCCNC(=O)c1cc(Nc2cc(C3CC3)[nH]n2)nc(N2CCN(Cc3ccc(S(=O)(=O)F)cc3)CC2)n1)OC1CC/C=C/CCC1 (centres undefined), the pIC50 (DYRK2; cell material: Jurkat cells) is reported as less than 4.52, the pIC50 (DYRK2; cell material: Jurkat lysate) is reported as less than 4.52 and the pIC50 (DYRK2; cell material: Lysate mix) is reported as less than 4.52. For the same molecule, the pIC50 (TNK1) was 5.44, the pIC50 (UniProt Q9NYV4; cell material: Jurkat cells) was 5.85 and the pIC50 (UniProt Q9NYV4; cell material: Jurkat lysate) was less than 4.52. It also gave a pIC50 (UniProt Q9NYV4; cell material: Lysate mix) of less than 4.52, a pIC50 (BMPR1A; cell material: Jurkat cells) of less than 4.52 and a pIC50 (BMPR1A; cell material: Jurkat lysate) of less than 4.52. It also gave a pIC50 (BMPR1A; cell material: Lysate mix) of less than 4.52, a pIC50 (CSK; cell material: Jurkat cells) of less than 4.52 and a pIC50 (CSK; cell material: Jurkat lysate) of less than 4.52. The pIC50 (CSK; cell material: Lysate mix) was less than 4.52, the pIC50 (SGK3; cell material: Jurkat cells) was 6.44 and the pIC50 (SGK3; cell material: Jurkat lysate) was 4.92. It also gave a pIC50 (SGK3; cell material: Lysate mix) of 4.88.
CCNC(=O)c1cc(Nc2cc(C)[nH]n2)nc(N2CCN(Cc3ccc(S(=O)(=O)F)cc3)CC2)n1 was tested, and the pIC50 (DYRK2; cell material: Lysate mix) was less than 4.52, the pIC50 (TNK1) was 7.07 and the pIC50 (UniProt Q9NYV4; cell material: Lysate mix) was less than 4.52. It also gave a pIC50 (BMPR1A; cell material: Lysate mix) of less than 4.52, a pIC50 (CSK; cell material: Lysate mix) of less than 4.52 and a pIC50 (SGK3; cell material: Lysate mix) of 5.98.
CCNC(=O)c1cc(Nc2cc(C3CC3)[nH]n2)nc(N2CCN(Cc3ccc(S(=O)(=O)F)cc3)CC2)n1 was tested, and the pIC50 (DYRK2; cell material: Lysate mix) was 4.65, the pIC50 (TNK1) was 7.21 and the pIC50 (UniProt Q9NYV4; cell material: Lysate mix) was 4.9. The pIC50 (BMPR1A; cell material: Lysate mix) was 4.87, the pIC50 (CSK; cell material: Lysate mix) was less than 4.52 and the pIC50 (SGK3; cell material: Lysate mix) was 5.67.
